Results reported in US10047074B2, “Pharmaceutical compound” (IOmet Pharma Ltd., priority 2014, dated 2018).

Tests used:
TDO (A172) = biological target: T1, TDO (A172) (Homo sapiens, UniProt P48775); assay: A172 Kynurenine cell based assay; conditions: A172 human glioblastoma cells expressing TDO; kynurenine production, 48 hours
T1 construct: This assay utilised cancer cells which expressed either TDO (A172) or IDO (SKOV3); endogenous in cells; host or cells: A172 (human glioblastoma)
Method: (§1) Exemplary compounds of the invention were prepared, and tested to determine their effect as TDO and/or IDO inhibitors. Two different assays were employed: 1. a cell-based assay for detecting the effect of test compounds on kynurenine production in two different cancer cell types. This assay utilised cancer cells which expressed either TDO (A172) or IDO (SKOV3) and as such was used as a means of testing compound activity at these two enzymes in a cell-based context. 2. a TDO and IDO biochemical coupled assay which utilised recombinantly produced and purified TDO and IDO enzymes in combination with the enzyme formamidase. This coupled enzyme system allowed conversion of N-formylkynurenine produced by TDO or IDO activity to kynurenine which was then quantified by fluorescence following addition of Erhlich's Reagent The protocols for these are set out below.
(§2) Cell Based Assay for Detection of Kynurenine Produced by TDO and/or IDO
(§3) A172 (human glioblastoma) and SKOV3 (human ovarian adenocarcinoma) cells were seeded in a 96 well plate at 30,000 or 40,000 cells per well respectively in phenol red-free RPMI supplemented with 10% FCS, 2 mM L-glutamine and 500 µM L-tryptophan. IDO expression was induced in the SKOV3 cells by the addition of 500 ng/ml IFN-γ. Cells were incubated at 37° C. with or without the addition of test compound. After 48 hours, the cells were removed by centrifugation and Erhlich's reagent was added to the supernatant. The Erhlich's reagent was incubated for 5 minutes before the absorbance was read at 490 nm.

IDO (SKOV3) = biological target: T2, IDO (SKOV3) (Homo sapiens, UniProt P14902); assay: SKOV3 Kynurenine cell based assay; conditions: SKOV3 human ovarian adenocarcinoma cells, IDO induced by IFN-γ; kynurenine production, 48 hours
T2 construct: IDO expression was induced in the SKOV3 cells by the addition of 500 ng/ml IFN-γ; endogenous in cells; host or cells: SKOV3 (human ovarian adenocarcinoma), IFN-γ induced
T2 sequence (P14902 whole entry): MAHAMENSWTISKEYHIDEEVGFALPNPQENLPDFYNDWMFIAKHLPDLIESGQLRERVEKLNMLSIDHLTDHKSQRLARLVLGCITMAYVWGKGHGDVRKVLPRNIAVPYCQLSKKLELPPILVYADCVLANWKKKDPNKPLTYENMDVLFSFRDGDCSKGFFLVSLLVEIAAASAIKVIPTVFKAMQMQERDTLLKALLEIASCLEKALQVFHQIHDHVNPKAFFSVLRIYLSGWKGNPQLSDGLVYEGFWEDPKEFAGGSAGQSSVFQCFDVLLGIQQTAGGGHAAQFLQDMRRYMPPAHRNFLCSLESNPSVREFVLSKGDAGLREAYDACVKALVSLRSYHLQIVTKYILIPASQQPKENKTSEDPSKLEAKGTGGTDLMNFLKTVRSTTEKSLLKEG
Method: as §1, §2
as §3, with “supernatant.” for “supernatant. The Erhlich's reagent was incubated for 5 minutes before the absorbance was read at 490 nm.”

Recombinant human IDO = Recombinant human IDO (Homo sapiens, UniProt P14902); assay: hIDO biochemical assay (coupled with formamidase); conditions: coupled with kynurenine formamidase, fluorescence
Recombinant human IDO, sequence (P14902 whole entry): as above
Method: as §1
(§4) TDO and IDO Biochemical Coupled Assay
(§5) Recombinant human IDO or TDO was incubated in 50 mM KPO4 (pH 7.0), 0.5 mM EGTA, 0.5 mM EDTA, 0.05% Triton™ X100, 20 mM ascorbate, […] methylene blue, 500 U/ml catalase, 50 μg/ml KynB (kynurenine formamidase). TDO assays were carried out in the presence of 330 μM L-tryptophan, while IDO assays had the addition of 45 µM L-tryptophan. After incubation for 17 minutes at room temperature the reactions were stopped by the addition of Erhlich's reagent and incubated at room temperature for 5 minutes before the fluorescence was read (Ex475, Em530).

Recombinant human TDO = Recombinant human TDO (Homo sapiens, UniProt P48775); assay: hTDO biochemical assay (coupled with formamidase); conditions: 330 μM L-tryptophan, coupled with kynurenine formamidase, fluorescence
Recombinant human TDO, sequence (P48775 whole entry): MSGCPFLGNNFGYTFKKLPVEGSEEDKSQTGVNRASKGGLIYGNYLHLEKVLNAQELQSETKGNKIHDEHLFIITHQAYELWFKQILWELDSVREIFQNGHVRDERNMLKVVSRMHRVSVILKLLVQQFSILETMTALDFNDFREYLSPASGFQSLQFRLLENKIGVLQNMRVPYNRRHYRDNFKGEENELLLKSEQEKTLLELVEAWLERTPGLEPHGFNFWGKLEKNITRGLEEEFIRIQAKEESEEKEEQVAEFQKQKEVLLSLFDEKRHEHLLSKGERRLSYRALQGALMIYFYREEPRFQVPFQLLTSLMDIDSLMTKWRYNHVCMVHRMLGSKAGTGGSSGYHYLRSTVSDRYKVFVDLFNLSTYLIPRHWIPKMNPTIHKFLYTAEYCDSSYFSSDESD
Method: as §1, §4, §5

T1 sequence (P48775 whole entry): as above

SMILES | A172 Kynurenine cell based assay pIC50 (TDO (A172)) | SKOV3 Kynurenine cell based assay pIC50 (IDO (SKOV3)) | hIDO biochemical assay pIC50 (Recombinant human IDO) | hTDO biochemical assay pIC50 (Recombinant human TDO)
N#Cc1ccc(-c2cnoc2N)cc1 [Compound 50] | ++ (++ = pIC50 4.50-5.49) | ++ (++ = pIC50 4.50-5.49) | ++ (++ = pIC50 4.50-5.49) | –
CC(O)C(=O)Nc1oncc1-c1ccccc1 (stereo not drawn) [Compound 75] | +++ (+++ = pIC50 ≥ 5.50) | + (+ = pIC50 4.00-4.49) | ++ (++ = pIC50 4.50-5.49) | ++ (++ = pIC50 4.50-5.49)
Nc1oncc1-c1cccc(F)c1 [Compound 13] | +++ (+++ = pIC50 ≥ 5.50) | ++ (++ = pIC50 4.50-5.49) | ++ (++ = pIC50 4.50-5.49) | + (+ = pIC50 4.00-4.49)
O=C(CO)Nc1oncc1-c1ccccc1 [Compound 63] | +++ (+++ = pIC50 ≥ 5.50) | ++ (++ = pIC50 4.50-5.49) | + (+ = pIC50 4.00-4.49) | +/− (+/− = pIC50 < 4.00)
O=C(Nc1oncc1-c1ccccc1)c1ccccc1 [Compound 49] | +++ (+++ = pIC50 ≥ 5.50) | ++ (++ = pIC50 4.50-5.49) | +/− (+/− = pIC50 < 4.00) | + (+ = pIC50 4.00-4.49)
Nc1noc(N)c1-c1cccc(Cl)c1 [Compound 5] | +++ (+++ = pIC50 ≥ 5.50) | ++ (++ = pIC50 4.50-5.49) | ++ (++ = pIC50 4.50-5.49) | + (+ = pIC50 4.00-4.49)
CC(C)CS(=O)(=O)Nc1cnoc1-c1ccccc1 [Compound 80] | +/− (+/− = pIC50 < 4.00) | + (+ = pIC50 4.00-4.49) | ++ (++ = pIC50 4.50-5.49) | +/− (+/− = pIC50 < 4.00)
CC(N)C(=O)Nc1oncc1-c1ccccc1 (stereo not drawn) [Compound 81] | +++ (+++ = pIC50 ≥ 5.50) | ++ (++ = pIC50 4.50-5.49) | + (+ = pIC50 4.00-4.49) | +/− (+/− = pIC50 < 4.00)
Nc1oncc1-c1ccc(Cl)cc1 [Compound 2] | +++ (+++ = pIC50 ≥ 5.50) | ++ (++ = pIC50 4.50-5.49) | – | –
CC(C)C(=O)Nc1oncc1-c1ccccc1 [Compound 34] | ++ (++ = pIC50 4.50-5.49) | ++ (++ = pIC50 4.50-5.49) | ++ (++ = pIC50 4.50-5.49) | ++ (++ = pIC50 4.50-5.49)
CCOC(=O)C(=O)Nc1oncc1-c1ccccc1 [Compound 45] | +++ (+++ = pIC50 ≥ 5.50) | + (+ = pIC50 4.00-4.49) | – | –
CN(C)C(=O)CCC(=O)Nc1oncc1-c1ccccc1 [Compound 58] | ++ (++ = pIC50 4.50-5.49) | + (+ = pIC50 4.00-4.49) | – | –
CCOC(=O)CC(=O)Nc1oncc1-c1ccccc1 [Compound 43] | +++ (+++ = pIC50 ≥ 5.50) | ++ (++ = pIC50 4.50-5.49) | – | –
CN(CCC(=O)Nc1oncc1-c1ccccc1)S(C)(=O)=O [Compound 47] | ++ (++ = pIC50 4.50-5.49) | + (+ = pIC50 4.00-4.49) | – | –
CN(C)C(=O)CNc1oncc1-c1ccccc1 [Compound 60] | ++ (++ = pIC50 4.50-5.49) | + (+ = pIC50 4.00-4.49) | – | –
CC(C)(C)C(=O)Nc1oncc1-c1ccc(F)cc1 [Compound 8] | +/− (+/− = pIC50 < 4.00) | ++ (++ = pIC50 4.50-5.49) | – | –
O=S(=O)(CC1CCOCC1)Nc1oncc1-c1ccccc1 [Compound 32] | +/− (+/− = pIC50 < 4.00) | + (+ = pIC50 4.00-4.49) | – | –

SMILES | A172 Kynurenine cell based assay pIC50 (TDO (A172)) | SKOV3 Kynurenine cell based assay pIC50 (IDO (SKOV3)) | hIDO biochemical assay pIC50 (Recombinant human IDO) | hTDO biochemical assay pIC50 (Recombinant human TDO)
OCCNc1oncc1-c1ccccc1 [Compound 57] | +++ (+++ = pIC50 ≥ 5.50) | ++ (++ = pIC50 4.50-5.49) | – | –
Nc1oncc1-c1ccncc1 [Compound 46] | ++ (++ = pIC50 4.50-5.49) | + (+ = pIC50 4.00-4.49) | – | –
CN(C)CC(=O)Nc1oncc1-c1ccccc1 [Compound 37] | ++ (++ = pIC50 4.50-5.49) | ++ (++ = pIC50 4.50-5.49) | – | –
O=C(Cc1ccccc1)Nc1oncc1-c1ccccc1 [Compound 19] | + (+ = pIC50 4.00-4.49) | ++ (++ = pIC50 4.50-5.49) | – | –
CCOC(=O)CCC(=O)Nc1oncc1-c1ccccc1 [Compound 28] | +++ (+++ = pIC50 ≥ 5.50) | ++ (++ = pIC50 4.50-5.49) | – | –
CC(=O)Nc1oncc1-c1ccccc1 [Compound 17] | ++ (++ = pIC50 4.50-5.49) | + (+ = pIC50 4.00-4.49) | + (+ = pIC50 4.00-4.49) | + (+ = pIC50 4.00-4.49)
Nc1oncc1-c1ccc(F)cc1F [Compound 14] | ++ (++ = pIC50 4.50-5.49) | ++ (++ = pIC50 4.50-5.49) | – | –
O=C(Nc1oncc1-c1ccccc1)C1CC1 [Compound 27] | ++ (++ = pIC50 4.50-5.49) | ++ (++ = pIC50 4.50-5.49) | – | –
Nc1oncc1-c1ccc(F)c(F)c1 [Compound 12] | +++ (+++ = pIC50 ≥ 5.50) | ++ (++ = pIC50 4.50-5.49) | – | –
O=C(Nc1oncc1-c1ccccc1)C1CCCN1 (stereo not drawn) [Compound 66] | ++ (++ = pIC50 4.50-5.49) | +/− (+/− = pIC50 < 4.00) | – | –
Cc1noc(N)c1-c1ccc(F)cc1 [Compound 6] | ++ (++ = pIC50 4.50-5.49) | +/− (+/− = pIC50 < 4.00) | – | –
CC(C)CS(=O)(=O)Nc1cncn1-c1ccccc1 [Compound 72] | +/− (+/− = pIC50 < 4.00) | + (+ = pIC50 4.00-4.49) | – | –
Nc1oncc1-c1ccccc1 [Compound 7] | +++ (+++ = pIC50 ≥ 5.50) | ++ (++ = pIC50 4.50-5.49) | ++ (++ = pIC50 4.50-5.49) | ++ (++ = pIC50 4.50-5.49)
O=C(Nc1oncc1-c1ccccc1)c1cccnc1 [Compound 62] | ++ (++ = pIC50 4.50-5.49) | ++ (++ = pIC50 4.50-5.49) | – | –
O=S(=O)(Nc1oncc1-c1ccccc1)c1ccccc1 [Compound 26] | + (+ = pIC50 4.00-4.49) | ++ (++ = pIC50 4.50-5.49) | +++ (+++ = pIC50 ≥ 5.50) | +/− (+/− = pIC50 < 4.00)
Nc1oncc1-c1ccc(F)cc1 [Compound 1] | +++ (+++ = pIC50 ≥ 5.50) | ++ (++ = pIC50 4.50-5.49) | ++ (++ = pIC50 4.50-5.49) | ++ (++ = pIC50 4.50-5.49)
NCCNc1oncc1-c1ccccc1 [Compound 82] | +++ (+++ = pIC50 ≥ 5.50) | + (+ = pIC50 4.00-4.49) | – | –
